BindingDB's records for doi:10.1021/jm050499d (University of Zürich, 2005)

Test: Predicted binding affinity for beta secretase by linear interaction energy continuum electrostatics

COCCCNC(=O)c1cc(NC(=O)Nc2cc(C(F)(F)F)cc(C(F)(F)F)c2)ccc1N(C)C [5-[3-(3,5-Bis-trifluoromethyl-phenyl)-ureido]-2-dimethylamino-N-(3-methoxy-propyl)-benzamide]
Ki: 9.4 µM
